Data on 10 compounds can be found in ChEMBL document CHEMBL1150557, “Molecular design of novel PGI2 agonists without PG skeleton. I” (Bioorg Med Chem Lett, 1995).

Molecules are shown by their SMILES.

In the first assay the target is Prostacyclin receptor (Homo sapiens, UniProt P43119). As to the kind of experiment: Prostaglandin I2 receptor binding by displacement of [3H]iloprost from human platelets.
Chain of Prostacyclin receptor (P43119 whole entry): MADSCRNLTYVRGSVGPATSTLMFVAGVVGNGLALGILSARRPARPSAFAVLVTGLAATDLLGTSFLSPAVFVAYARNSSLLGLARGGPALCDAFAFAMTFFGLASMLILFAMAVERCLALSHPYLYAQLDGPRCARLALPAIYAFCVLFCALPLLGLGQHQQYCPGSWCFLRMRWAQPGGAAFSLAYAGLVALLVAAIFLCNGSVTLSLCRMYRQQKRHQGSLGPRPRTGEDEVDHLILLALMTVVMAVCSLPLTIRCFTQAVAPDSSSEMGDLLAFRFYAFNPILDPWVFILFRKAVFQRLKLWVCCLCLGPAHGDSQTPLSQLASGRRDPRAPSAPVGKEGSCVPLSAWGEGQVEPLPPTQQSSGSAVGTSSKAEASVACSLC
Consider `O=C(O)COc1cccc2c1CCC(C/C=C/CC(c1ccccc1)c1ccccc1)C2` (configuration not stated), for which the IC50 – broadly, the concentration that gives 50% inhibition – came to 3.1 µM. Still for that read-out and setting: with `CCCCCC(O)/C=C/CCC1CCCc2c(OCC(=O)O)cccc21` (configuration not stated) the figure was 9.6 µM. Still for that read-out and setting: then `O=C(O)COc1cccc2c1CCC(C/C=C/C(O)Cc1ccccc1)C2` (configuration not stated), with 4.9 µM; and `O=C(O)COc1cccc2c1CCCC2CC/C=N/OC(c1ccccc1)c1ccccc1` (configuration not stated), with 0.6 µM; and `O=C(O)COc1cccc2c1CCC(C/C=C/CCc1ccccc1)C2` (configuration not stated), with 5.3 µM. Same read-out and setting: then `O=C(O)COc1cccc(CCC/C=N/OC(c2ccccc2)c2ccccc2)c1`, with 3.9 µM. For the compound `O=C(O)COc1cccc2c1CCC(C/C=C\CC(c1ccccc1)c1ccccc1)C2` (configuration not stated), the 50% inhibitory concentration (IC50) came to 3 µM. Same read-out and setting: then `O=C(O)COc1cccc2c1CCC(C/C=N/OC(c1ccccc1)c1ccccc1)C2` (configuration not stated), with 0.65 µM; and `CCCCCC(O)/C=C/CC1CCc2c(cccc2OCC(=O)O)C1` (configuration not stated), with 7.8 µM. As to `CCCCCC(O)/C=C/CCCc1cccc(OCC(=O)O)c1` (configuration not stated), the IC50 was found to be 23 µM.

For a further assay, the species on record is Homo sapiens. As to the kind of experiment: Evaluated for inhibition of 4 uM ADP-induced human platelet aggregation. The class given is functional, organism-based.
With `O=C(O)COc1cccc2c1CCCC2CC/C=N/OC(c1ccccc1)c1ccccc1` (configuration not stated), the midpoint of inhibition, the IC50, lay at 2.1 µM.

In turn, `O=C(O)COc1cccc2c1CCC(C/C=N/OC(c1ccccc1)c1ccccc1)C2` (configuration not stated) registered an IC50 of 1.1 µM.
